Laboratory results as given in PubChem BioAssay AID1259407 (Chemical Carcinogenesis Research Information System (CCRIS), 2018).
The source made the active and inactive calls. No rule for the calls is given here.

System: CCRIS mutagenicity, Ames/micronucleus/aberration tests
Assay: CCRIS mutagenicity studies
[1] = Test System: AMES SALMONELLA TYPHIMURIUM, Strain/Indicator: TA98, Metabolic Activation: NONE, Method: STANDARD PLATE
[2] = Test System: AMES SALMONELLA TYPHIMURIUM, Strain/Indicator: TA100, Metabolic Activation: NONE, Method: STANDARD PLATE

With COP(=O)(OC)C(O)C(Cl)(Cl)Cl (stereo unspecified) the mutagenic call (End Point: IN VIVO MICRONUCLEUS, Test System: PREIMPLANTATION EMBRYOS, Species: MOUSE, Strain/Sex: ICR FEMALE/EMBRYO, Route: MATERNAL SINGLE IP DOSE, EMBRYO HARVEST ON G.D 3) was “active; positive”, the mutagenic call (End Point: In vivo micronucleus, Test System: Micronucleated, binucleated and multinucleated hepatocytes, Species: Mouse, Strain/Sex: ddY/Male, Route: Intravenous) was “active; positive for binucleated and multinucleated cells when agent administered after” and the mutagenic call (Test System: AMES SALMONELLA TYPHIMURIUM, Strain/Indicator: TA97, Metabolic Activation: NONE, Method: SPOT TEST) was “inactive; negative”. For the same compound, the mutagenic call (Test System: AMES SALMONELLA TYPHIMURIUM, Strain/Indicator: TA97, Metabolic Activation: NONE, Method: STANDARD PLATE) was “inactive; negative”, the mutagenic call (Test System: AMES SALMONELLA TYPHIMURIUM, Strain/Indicator: TA97, Metabolic Activation: RAT, LIVER, S-9, NAPHTHOFLAVONE AND PHENOBARBITAL, Method: STANDARD PLATE) was “inactive; negative” and the mutagenic call (Test System: AMES SALMONELLA TYPHIMURIUM, Strain/Indicator: TA97, Metabolic Activation: RAT, LIVER, S-9, PHENOBARBITAL AND NAPHTHOFLAVONE, Method: SPOT TEST) was “inactive; negative”. For the same compound, the mutagenic call (Test System: AMES SALMONELLA TYPHIMURIUM, Strain/Indicator: TA98, Metabolic Activation: HAMSTER, LIVER, S-9, AROCLOR 1254 (10%), Method: PREINCUBATION) was “inactive; negative”, the mutagenic call (Test System: AMES SALMONELLA TYPHIMURIUM, Strain/Indicator: TA98, Metabolic Activation: NONE, Method: PREINCUBATION) was “inactive; negative” and the mutagenic call (Test System: AMES SALMONELLA TYPHIMURIUM, Strain/Indicator: TA98, Metabolic Activation: NONE, Method: SPOT TEST) was “inactive; negative”. The mutagenic call [1] was “inactive; negative”, the mutagenic call (Test System: AMES SALMONELLA TYPHIMURIUM, Strain/Indicator: TA98, Metabolic Activation: RAT, LIVER, S-9, AROCLOR 1254 (10%), Method: PREINCUBATION) was “inactive; negative” and the mutagenic call (Test System: AMES SALMONELLA TYPHIMURIUM, Strain/Indicator: TA98, Metabolic Activation: RAT, LIVER, S-9, NAPHTHOFLAVONE AND PHENOBARBITAL, Method: STANDARD PLATE) was “inactive; negative”. The mutagenic call (Test System: AMES SALMONELLA TYPHIMURIUM, Strain/Indicator: TA98, Metabolic Activation: RAT, LIVER, S-9, PHENOBARBITAL AND NAPHTHOFLAVONE, Method: SPOT TEST) was “inactive; negative”, the mutagenic call (Test System: AMES SALMONELLA TYPHIMURIUM, Strain/Indicator: TA100, Metabolic Activation: HAMSTER, LIVER, S-9, AROCLOR 1254 (10%), Method: PREINCUBATION) was “inactive; negative” and the mutagenic call (Test System: AMES SALMONELLA TYPHIMURIUM, Strain/Indicator: TA100, Metabolic Activation: NONE, Method: PREINCUBATION) was “inactive; negative”. The mutagenic call (Test System: AMES SALMONELLA TYPHIMURIUM, Strain/Indicator: TA100, Metabolic Activation: NONE, Method: SPOT TEST) was “inactive; negative”, the mutagenic call [2] was “inactive; negative” and the mutagenic call (Test System: AMES SALMONELLA TYPHIMURIUM, Strain/Indicator: TA100, Metabolic Activation: RAT, LIVER, S-9, AROCLOR 1254 (10%), Method: PREINCUBATION) was “inactive; negative”. For the same compound, the mutagenic call (Test System: AMES SALMONELLA TYPHIMURIUM, Strain/Indicator: TA100, Metabolic Activation: RAT, LIVER, S-9, NAPHTHOFLAVONE AND PHENOBARBITAL, Method: FLUCTUATION TEST) was “inactive; negative”, the mutagenic call (Test System: AMES SALMONELLA TYPHIMURIUM, Strain/Indicator: TA100, Metabolic Activation: RAT, LIVER, S-9, NAPHTHOFLAVONE AND PHENOBARBITAL, Method: PREINCUBATION) was “active; positive” and the mutagenic call (Test System: AMES SALMONELLA TYPHIMURIUM, Strain/Indicator: TA100, Metabolic Activation: RAT, LIVER, S-9, NAPHTHOFLAVONE AND PHENOBARBITAL, Method: STANDARD PLATE) was “inactive; negative”. The mutagenic call (Test System: AMES SALMONELLA TYPHIMURIUM, Strain/Indicator: TA100, Metabolic Activation: RAT, LIVER, S-9, PHENOBARBITAL AND NAPHTHOFLAVONE, Method: SPOT TEST) was “inactive; negative”, the mutagenic call (Test System: AMES SALMONELLA TYPHIMURIUM, Strain/Indicator: TA100, Metabolic Activation: S-9 MIX, Method: STANDARD PLATE) was “active; positive” and the mutagenic call (Test System: AMES SALMONELLA TYPHIMURIUM, Strain/Indicator: TA104, Metabolic Activation: NONE, Method: PREINCUBATION) was “active; positive”. For the same compound, the mutagenic call (Test System: AMES SALMONELLA TYPHIMURIUM, Strain/Indicator: TA104, Metabolic Activation: NONE, Method: STANDARD PLATE) was “inactive; negative”, the mutagenic call (Test System: AMES SALMONELLA TYPHIMURIUM, Strain/Indicator: TA104, Metabolic Activation: RAT, LIVER, S-9, NAPHTHOFLAVONE AND PHENOBARBITAL, Method: PREINCUBATION) was “active; positive” and the mutagenic call (Test System: AMES SALMONELLA TYPHIMURIUM, Strain/Indicator: TA104, Metabolic Activation: RAT, LIVER, S-9, NAPHTHOFLAVONE AND PHENOBARBITAL, Method: STANDARD PLATE) was “inactive; negative”. The mutagenic call (Test System: AMES SALMONELLA TYPHIMURIUM, Strain/Indicator: TA1535, Metabolic Activation: HAMSTER, LIVER, S-9, AROCLOR 1254 (10%), Method: PREINCUBATION) was “inactive; negative”, the mutagenic call (Test System: AMES SALMONELLA TYPHIMURIUM, Strain/Indicator: TA1535, Metabolic Activation: NONE, Method: PREINCUBATION) was “inactive; negative” and the mutagenic call (Test System: AMES SALMONELLA TYPHIMURIUM, Strain/Indicator: TA1535, Metabolic Activation: NONE, Method: SPOT TEST) was “inactive; negative”. For the same compound, the mutagenic call (Test System: AMES SALMONELLA TYPHIMURIUM, Strain/Indicator: TA1535, Metabolic Activation: NONE, Method: STANDARD PLATE) was “inactive; negative”, the mutagenic call (Test System: AMES SALMONELLA TYPHIMURIUM, Strain/Indicator: TA1535, Metabolic Activation: RAT, LIVER, S-9, AROCLOR 1254 (10%), Method: PREINCUBATION) was “inactive; negative” and the mutagenic call (Test System: AMES SALMONELLA TYPHIMURIUM, Strain/Indicator: TA1535, Metabolic Activation: RAT, LIVER, S-9, NAPHTHOFLAVONE AND PHENOBARBITAL, Method: PREINCUBATION) was “inactive; negative”. The mutagenic call (Test System: AMES SALMONELLA TYPHIMURIUM, Strain/Indicator: TA1535, Metabolic Activation: RAT, LIVER, S-9, NAPHTHOFLAVONE AND PHENOBARBITAL, Method: STANDARD PLATE) was “inactive; negative”, the mutagenic call (Test System: AMES SALMONELLA TYPHIMURIUM, Strain/Indicator: TA1535, Metabolic Activation: RAT, LIVER, S-9, PHENOBARBITAL AND NAPHTHOFLAVONE, Method: SPOT TEST) was “inactive; negative” and the mutagenic call (Test System: AMES SALMONELLA TYPHIMURIUM, Strain/Indicator: TA1537, Metabolic Activation: HAMSTER, LIVER, S-9, AROCLOR 1254 (10%), Method: PREINCUBATION) was “inactive; negative”. The mutagenic call (Test System: AMES SALMONELLA TYPHIMURIUM, Strain/Indicator: TA1537, Metabolic Activation: NONE, Method: PREINCUBATION) was “inactive; negative”, the mutagenic call (Test System: AMES SALMONELLA TYPHIMURIUM, Strain/Indicator: TA1537, Metabolic Activation: RAT, LIVER, S-9, AROCLOR 1254 (10%), Method: PREINCUBATION) was “inactive; negative” and the mutagenic call (Test System: CHINESE HAMSTER V-79, Strain/Indicator: V-79/OUABAIN, Metabolic Activation: NONE) was “inactive; negative”. The mutagenic call (Test System: E. COLI, Strain/Indicator: WP2, Metabolic Activation: NONE, Method: STANDARD PLATE) was “active; positive”, the mutagenic call (Test System: E. COLI, Strain/Indicator: WP2, Metabolic Activation: RAT, LIVER, S-9, AROCLOR 1254, Method: STANDARD PLATE) was “active; positive” and the mutagenic call (Test System: E. COLI, Strain/Indicator: WP2 UVRA, Metabolic Activation: NONE, Method: STANDARD PLATE) was “active; positive”. The mutagenic call (Test System: E. COLI, Strain/Indicator: WP2 UVRA, Metabolic Activation: RAT, LIVER, S-9, AROCLOR 1254, Method: STANDARD PLATE) was “active; positive”, the mutagenic call (Test System: UDS HUMAN CELLS, Strain/Indicator: EUE LINE/THY INCORP, Metabolic Activation: NONE, Method: AUTORADIOGRAPHY) was “active; positive” and the mutagenic call (Test System: UDS HUMAN FIBROBLASTS, Strain/Indicator: THY INCORP (NON-S-PHASE), Metabolic Activation: NONE, Method: LIQUID SCINTILLATION COUNTING) was “active; positive”.

With CN1CCc2cc3c(c4c2[C@H]1[C@H](O)c1ccccc1-4)OCO3 the mutagenic call (Test System: AMES SALMONELLA TYPHIMURIUM, Strain/Indicator: TA98, Metabolic Activation: RAT, LIVER, S-9, PHENOBARBITAL AND BETA-NAPHTHOFLAVONE, Method: PREINCUBATION) was “active; positive” and the mutagenic call (Test System: AMES SALMONELLA TYPHIMURIUM, Strain/Indicator: TA100, Metabolic Activation: RAT, LIVER, S-9, PHENOBARBITAL AND BETA-NAPHTHOFLAVONE, Method: PREINCUBATION) was “active; positive”.

In the case of Cc1ccc2ccc3ccccc3c2c1C, the mutagenic call [1] was “inactive; negative”, the mutagenic call (Test System: AMES SALMONELLA TYPHIMURIUM, Strain/Indicator: TA98, Metabolic Activation: RAT, LIVER, S-9, AROCLOR 1254, Method: STANDARD PLATE) was “inactive; negative” and the mutagenic call [2] was “inactive; negative”. The mutagenic call (Test System: AMES SALMONELLA TYPHIMURIUM, Strain/Indicator: TA100, Metabolic Activation: RAT, LIVER, S-9, AROCLOR 1254, Method: STANDARD PLATE) was “inactive; negative”.
